Source: patent US4731109A, “Herbicidal 2-haloacetanilides” (Monsanto Company, priority 1982, dated 1988)
Read-outs that look alike come from different tables or passages of the source.

Experiments:
Assay type in all cases: in vivo
Barnyardgrass = experiment: Resistance to leaching and resulting herbicidal efficacy; conditions: for inhibition at 140 g/ha / inhibition at 560 g/ha / inhibition at 2200 g/ha: Echinochloa crus-galli, read-out: Percent Inhibition
Description: Laboratory tests were conducted to determine the resistance of herbicides according to this invention to leaching into the soil and resulting herbicidal efficacy. […] The pots containing the treated soil were subjected to leaching by placing on a turntable which rotated under two nozzle tips of a water container calibrated to deliver one inch (2.5 cm) of water per hour simulating rainfall. Leaching rates were adjusted by varying the amount of time on the turntable. Water was delivered to the soil in the pots and allowed to percolate through the filter paper and drainage holes. The pots were then allowed to sit for three days at ambient room temperature. The treated soil in the pots was then removed, crumbled and placed as a surface layer on top of other pots containing the above soils seeded with barnyardgrass seeds. The pots were then placed on greenhouse benches, sub-irrigated and allowed to grow for 2-3 weeks. Visual ratings of percent growth inhibition compared to control (untreated) pots and fresh weights for barnyardgrass were recorded; the data from the control represents six replications and that for the test compounds three replications; test data are shown in Table XVIII.

cotton = experiment: Greenhouse pre-emergence GR15/GR85 selectivity test; conditions: Table XII
Excerpt: (§1) A good grade of top soil is placed in aluminum pans and compacted to a depth of three-eighths to one-half inch from the top of the pan. On the top of the soil is placed a number of seeds or vegetative propagules of various plant species. The soil required to level fill the pans after seeding or adding vegetative propagules is weighed into a pan. The soil and a known amount of the active ingredient applied in a solvent or as a wettable powder suspension are thoroughly mixed, and used to cover the prepared pans. After treatment, the pans are given an initial overhead irrigation of eater, equivalent to one-fourth inch (0.64 cm) rainfall, then watered by subirrigation as need to give adequate moisture for germination and growth. As an alternative procedure, the overhead irrigation may be omitted. Observations are made about 2-3 weeks after seeding and treatment.
(§2) In the discussion and tables of data below, reference is made to herbicide application rates symbolized as "GR15 " and "GR85 "; these rates are given in kilograms per hectare (kg/ha) which are convertible into pounds per acre (lbs/A) by dividing the kg/ha rate by 1.12.
(§3) A further guide to the effectiveness of a chemical as a selective herbicide is the "selectivity factor" ("SF") for a herbicide in given crops and weeds. The selectivity factor is a measure of the relative degree of crop safety and weed injury and is expressed in terms of the GR15 /GR85 ratio, i.e., the GR15 rate for the crop divided by the GR85 rate for the weed, both rates in kg/ha (lb/A). In the tables below, selectivity factors are shown in parenthesis following the GR85 rate for each weed; the symbol "NS" indicates "non-selective". Marginal or undetermined selectivity is indicated by a dash (--).
(§4) Additionally, pre-emergence herbicidal data from other tests have established that compounds according to this invention also selectively suppress quackgrass, yellow nutsedge and/or other weeds in one or more of the crops cotton, peanuts, bush beans and/or rape. For example, in Table VI are presented data showing the herbicidal selectivity of the compounds of Examples 1 and 2 against quackgrass in rape and snap beans. Unless otherwise noted; greenhouse tests in Table VI and in other tables below involved herbicide treatments by soil incorporation and an initial overhead irrigation followed by subirrigation as described above.
In one multi-crop test in the greenhouse, the compounds of Examples 1, 9, and 10 were tested against yellow nutsedge in cotton, soybeans, corn and rice; each compound was non-selective with respect to yellow nutsedge in rice. However, markedly high selectivities for yellow nutsedge in cotton, soybeans and corn were shown for each of the compounds in the test; the respective GR15 and GR85 rates for these compounds are shown in Table XII selectivity factors are shown in parenthesis after each crop.

purple nutsedge = experiment: as above
Excerpt: as §1, §2, §3, §4
In other greenhouse tests, compounds according to this invention have shown selective control of a variety of annual and perennial weeds in various crops. As further illustrative, the compound of Example 1 selectively controlled purple nutsedge in both corn nd soybeans, the respective crop/weed GR15 /GR85 ratios (expressed in kg/ha) being 0.67/0.25 (S.F.=2.7) in corn and 1.1/0.25 (S.F.=4.5) in soybeans. The compound of Example 8 has shown selective control of yellow nutsedge and quackgrass in corn and soybeans. The respective crop/yellownutsedge GR15 /GR85 ratios being >2.2/0.95 (S.F.=2.5) in corn; 2.2/0.5 (SF=4.5) in soybeans and the respective GR15 /GR85 ratios for both corn and soybeans in quackgrass being >2.2/0.5 (S.F.=4.5). In a test against yellow nutsedge in cotton, the GR15 /GR85 ratio (average of two replicates) was 2.0/0.95 (S.F.=2).
In another greenhouse test, the compounds of Examples 3-5, 9 and 10 were tested for their herbicidal efficacy against a variety of resistant annual and perennial weeds in rape.

[1] = Ray silt loam, 0.14 Kg/Ha, rain 0 cm
[2] = Ray silt loam, 0.14 Kg/Ha, rain 1.27 cm
[3] = Ray silt loam, 0.14 Kg/Ha, rain 5.08 cm
[4] = Ray silt loam, 0.56 Kg/Ha, rain 0 cm
[5] = Ray silt loam, 0.56 Kg/Ha, rain 1.27 cm
[6] = Ray silt loam, 0.56 Kg/Ha, rain 5.08 cm
[7] = Ray silt loam, 0.56 Kg/Ha, rain 10.16 cm
[8] = Ray silt loam, 2.2 Kg/Ha, rain 0 cm
[9] = Ray silt loam, 2.2 Kg/Ha, rain 1.27 cm
[10] = Ray silt loam, 2.2 Kg/Ha, rain 5.08 cm
[11] = Ray silt loam, 2.2 Kg/Ha, rain 10.16 cm
[12] = Ray silt loam, 0.14 Kg/Ha, rain 10.16 cm

Question: How did the inhibition at 140 g/ha (Barnyardgrass; Drummer silt clay, 0.14 Kg/Ha, rain 0 cm) turn out when CCOCN(C(=O)CCl)c1c(C)cccc1C(F)(F)F [Example 1, N-(ethoxymethyl)-2'-trifluoromethyl-6'-methyl-2-chloroacetanilide] was run?
Answer: The inhibition at 140 g/ha was 100%.

Question: And the inhibition at 140 g/ha (Barnyardgrass; Drummer silt clay, 0.14 Kg/Ha, rain 1.27 cm)?
Answer: The inhibition at 140 g/ha was 97%.

Question: And the inhibition at 140 g/ha (Barnyardgrass; Drummer silt clay, 0.14 Kg/Ha, rain 5.08 cm)?
Answer: The inhibition at 140 g/ha was 95%.

Question: What about the inhibition at 140 g/ha (Barnyardgrass; Drummer silt clay, 0.14 Kg/Ha, rain 10.16 cm) of the same molecule?
Answer: Its inhibition at 140 g/ha is 20%.

Question: And the inhibition at 560 g/ha (Barnyardgrass; Drummer silt clay, 0.56 Kg/Ha, rain 0 cm)?
Answer: Its inhibition at 560 g/ha is 100%.

Question: What about the inhibition at 560 g/ha (Barnyardgrass; Drummer silt clay, 0.56 Kg/Ha, rain 1.27 cm) of the same molecule?
Answer: The inhibition at 560 g/ha was 100%.

Question: And the inhibition at 560 g/ha (Barnyardgrass; Drummer silt clay, 0.56 Kg/Ha, rain 5.08 cm)?
Answer: Its inhibition at 560 g/ha is 100%.

Question: And the inhibition at 560 g/ha (Barnyardgrass; Drummer silt clay, 0.56 Kg/Ha, rain 10.16 cm)?
Answer: The inhibition at 560 g/ha was 100%.

Question: What about the inhibition at 2200 g/ha (Barnyardgrass; Drummer silt clay, 2.2 Kg/Ha, rain 0 cm) of the same molecule?
Answer: The inhibition at 2200 g/ha was 100%.

Question: And the inhibition at 2200 g/ha (Barnyardgrass; Drummer silt clay, 2.2 Kg/Ha, rain 1.27 cm)?
Answer: The inhibition at 2200 g/ha was 100%.

Question: And the inhibition at 2200 g/ha (Barnyardgrass; Drummer silt clay, 2.2 Kg/Ha, rain 5.08 cm)?
Answer: Its inhibition at 2200 g/ha is 100%.

Question: What about the inhibition at 2200 g/ha (Barnyardgrass; Drummer silt clay, 2.2 Kg/Ha, rain 10.16 cm) of the same molecule?
Answer: Its inhibition at 2200 g/ha is 100%.

Question: What about the inhibition at 140 g/ha (Barnyardgrass; [1]) of the same molecule?
Answer: The inhibition at 140 g/ha was 95%.

Question: What about the inhibition at 140 g/ha (Barnyardgrass; [2]) of the same molecule?
Answer: The inhibition at 140 g/ha was 96%.

Question: What about the inhibition at 140 g/ha (Barnyardgrass; [3]) of the same molecule?
Answer: Its inhibition at 140 g/ha is 58%.

Question: And the inhibition at 560 g/ha (Barnyardgrass; [4])?
Answer: The inhibition at 560 g/ha was 100%.

Question: What about the inhibition at 560 g/ha (Barnyardgrass; [5]) of the same molecule?
Answer: The inhibition at 560 g/ha was 100%.

Question: And the inhibition at 560 g/ha (Barnyardgrass; [6])?
Answer: The inhibition at 560 g/ha was 70%.

Question: And the inhibition at 560 g/ha (Barnyardgrass; [7])?
Answer: Its inhibition at 560 g/ha is 33%.

Question: And the inhibition at 2200 g/ha (Barnyardgrass; [8])?
Answer: Its inhibition at 2200 g/ha is 100%.

Question: And the inhibition at 2200 g/ha (Barnyardgrass; [9])?
Answer: The inhibition at 2200 g/ha was 100%.

Question: What about the inhibition at 2200 g/ha (Barnyardgrass; [10]) of the same molecule?
Answer: Its inhibition at 2200 g/ha is 95%.

Question: What about the inhibition at 2200 g/ha (Barnyardgrass; [11]) of the same molecule?
Answer: The inhibition at 2200 g/ha was 35%.

Question: And the inhibition at 140 g/ha (Barnyardgrass; [12])?
Answer: The inhibition at 140 g/ha was 20%.

Question: And the “Fresh Weight” value (Barnyardgrass; [1])?
Answer: The value was 0.20 Grams.

Question: What about the “Fresh Weight” value (Barnyardgrass; [2]) of the same molecule?
Answer: The value was 0.17 Grams.

Question: And the “Fresh Weight” value (Barnyardgrass; [3])?
Answer: The value was 1.74 Grams.

Question: What about the “Fresh Weight” value (Barnyardgrass; [12]) of the same molecule?
Answer: Its value is 3.26 Grams.

Question: What about the “Fresh Weight” value (Barnyardgrass; [4]) of the same molecule?
Answer: The value was 0 Grams.

Question: And the “Fresh Weight” value (Barnyardgrass; [5])?
Answer: Its value is 0 Grams.

Question: And the “Fresh Weight” value (Barnyardgrass; [6])?
Answer: Its value is 1.21 Grams.

Question: And the “Fresh Weight” value (Barnyardgrass; [7])?
Answer: Its value is 2.73 Grams.

Question: And the “Fresh Weight” value (Barnyardgrass; [8])?
Answer: Its value is 0 Grams.

Question: What about the “Fresh Weight” value (Barnyardgrass; [9]) of the same molecule?
Answer: Its value is 0 Grams.

Question: And the “Fresh Weight” value (Barnyardgrass; [10])?
Answer: The value was 0.20 Grams.

Question: What about the “Fresh Weight” value (Barnyardgrass; [11]) of the same molecule?
Answer: Its value is 2.65 Grams.

Question: What about the GR15 (cotton) of the same molecule?
Answer: The GR15 was 2.0 Kg/Ha.

Question: And the GR85 (purple nutsedge; in corn)?
Answer: The GR85 was 0.25 kg/ha.

Question: And the “S.F. (GR15/GR85)” value (purple nutsedge; in corn)?
Answer: The value was 2.7.

Question: What about the GR85 (purple nutsedge; in soybeans) of the same molecule?
Answer: The GR85 was 0.25 kg/ha.

Question: What about the “S.F. (GR15/GR85)” value (purple nutsedge; in soybeans) of the same molecule?
Answer: The value was 4.5.
